Assay [1] concerns H187 cell line. As to the kind of experiment: Cell activity detection, Alamar-Blue, H187. The class given is cell-based. The settings on record: Homo sapiens, NCI-H187, 72 h incubation. The protocol: (§1) H211 and H187 cell lines were purchased from ATCC and tested in accordance with the Alamar-Blue test kit instructions. The drugs were dissolved in 50 mM stock solution with DMSO and stored in a freezer at −20° C. The test drug stock solution was serially diluted with DMSO graded in a ratio of 1:3. Then DMSO diluted drug was serially diluted into a drug solution in 10× final concentration with cell complete culture medium. The 96-well cell culture plate was removed from the incubator, and 10 μl of culture medium containing a series of different concentrations of drug (10× final concentration) was added to a 96-well plate, and incubated at 37° C. for 72 h in CO2 incubator. The inhibition rate was plotted using GraphPad Prism 5.0 and MATILAB software by a non-linear regression method to obtain a series of dose-response curves from which the IC50 of the test sample was obtained, Table 2.

Assay [2] has as its target T1, BRD4 (BD1+BD2) bromodomain protein (Homo sapiens, UniProt O60885).
T1 construct: BRD4 (BD1+BD2) bromodomain protein; purchased Cayman
The assay can be described thus: TR-FRET BRD4 activity assay (Cayman kit). The class given is binding. The following applies: room temperature 2 hours. The method, then: Detection of TR-FRET BRD4 Activity:
The BRD4 activity assay was performed according to the TR-FRET method in the Cayman kit. Dilute 3×BRD TR-FRET Assay Buffer 1 with ultrapure water to 1×BRD TR-FRET Assay Buffer for further use. 1×BRD TR-FRET Assay Buffer was used to dilute Tb-labeled donor and dye-labeled acceptor in 100-fold. 5 μl of diluted Tb-labeled donor and dye-labeled acceptor were added respectively to the sample well, negative control well and positive control well. The configured 1×BRD TR-FRET Assay Buffer was used to formulate a 10% DMSO solution (excessive DMSO concentration would affect the reaction, and the final concentration of DMSO was controlled at 1%), then test compounds are diluted with 10% DMSO solution to give the compound's initial concentrations of 1 μM and 100 nM, IC50 test was started from 10 μM or 100 μM, diluted in 3-fold to give 8 or 10 concentration points. In addition to the control wells, 2 μl of the diluted test compound solution was added to the wells used, and 2 μl of the previously prepared 10% DMSO solution was added to the control wells. The BET Bromodomain Ligand and Non-acetylated Ligand 1 were respectively diluted in 40 fold with 1×BRD TR-FRET Assay Buffer. 5 μl of diluted BET Bromodomain Ligand was added to sample wells and positive control wells, and 5 μl of diluted non-acetylated ligand 1 was added into the negative control wells. 1×BRD TR-FRET Assay Buffer was used to dilute BRD4 (BD1+BD2) bromodomain protein to 6 ng/μl (18 ng/well), and 3 μl of diluted BRD4 (BD1+BD2) bromodomain protein was added to each well. The plate was sealed and mixed well. The reaction was performed at room temperature for 2 hours, and then fluorescence signals (320 nm stimulation, 665 nm, 615 nm emission) were detected with the ENVISION (Perkinelmer) instrument. The inhibition rate was calculated for each well by positive control wells and negative control wells, and average value was calculated for multiple wells. The results were plotted with Software PRISM 5.0 to fit the half inhibitory activity (IC50) for each test compound, Table 1.
In general terms: Time-resolved FRET reads energy transfer from a long-lived donor to a nearby acceptor.

Assay [3] relates to H211 cell line. As to the kind of experiment: Cell activity detection, Alamar-Blue, H211. The class given is cell-based. The following applies: Homo sapiens, NCI-H211, 72 h incubation. The method, then:
as §1

Assay [4] deals with MDA-MB-231 cell line. The assay can be described thus: Cell activity detection, CCK-8, MDA-MB-231. The class given is cell-based. The following applies: Homo sapiens, CCK-8, 72 hours incubation. The method, then: MDA-MB-231 cell line was purchased from Shanghai Cell Resource Center of the Chinese Academy of Sciences, and was performed according to the method in the kit of CCK-8. The cells in the logarithmic growth phase were collected, counted, and the cells were re-suspended in complete medium to adjust the cell concentration to a suitable concentration (determined according to cell density optimization test results), inoculated in 96-well plates, and each well was added with 100 μl of cell suspension. Cells were incubated at 37° C., in a 100% relative humidity and 5% CO2 incubator for 24 hours. The compound was diluted to the appropriate effective concentration determined with medium and the cells were added by 25 μl/well. The final concentration of the compound was diluted to from 1 μM to 0 μM graded in three-fold dilution to give 10 concentration points. The cells were incubated at 37° C., in a 100% relative humidity and 5% CO2 incubator for 72 hours. 1/10 volume of CCK-8 was added directly to the cell culture medium and incubated in a 37° C. incubator for 2-4 hours. The absorbance at 450 nm was determined on a SpectraMax M5 Microplate Reader after gentle shaking. Absorbance at 650 nm was taken as the reference. The IC50 curve fitting was performed using soft Graphpad Prism 5 and the IC50 value was calculated.

As a reminder, the IC50 is the concentration at which inhibition is half-maximal. A high value points to lower potency. Take `Cc1nnn(C)c1-c1cnc2c3cc4c(cc3n([C@H](c3ccccc3)C3CCOCC3)c2c1)C(=O)N(C)C4` [Compound 1]: the 50% inhibitory concentration (IC50) came out at 21 nM in assay [1], 3.6 nM in assay [2] and 7.2 nM in assay [3].

On to `Cc1nnn(C)c1-c1cnc2c3cc4c(cc3n([C@H](c3ccccc3)C3CCOCC3)c2c1)CN(C)C4=O` [Compound 2], for which the values for the half-maximal inhibitory concentration (IC50) in assay [1], in assay [2] and in assay [3] were 19 nM, 2.2 nM and 8.5 nM, respectively.

In the case of `Cc1nnn(C)c1-c1cnc2c3c4c(ccc3n([C@H](c3ccccc3)C3CCOCC3)c2c1)C(=O)N(C)C4` [Compound 3], the concentration for half-maximal inhibition (IC50) was determined as 35 nM in assay [1], 1.9 nM in assay [2] and 5.2 nM in assay [3].

For `Cc1nnn(C)c1-c1cnc2c3cc4c(cnn4C)cc3n([C@H](c3ccccc3)C3CCOCC3)c2c1` [Compound 4], the IC50 in assay [1] was 37 nM; in assay [2] it was 4.6 nM; in assay [3], 11.2 nM.

On to `Cc1nnn(C)c1-c1cnc2c3cc4cnn(C)c4cc3n([C@H](c3ccccc3)C3CCOCC3)c2c1` [Compound 5], for which the IC50 is 35 nM in assay [1], 3.8 nM in assay [2] and 29.5 nM in assay [3].

Take `Cc1nnn(C)c1-c1cnc2c3c4cnn(C)c4ccc3n([C@H](c3ccccc3)C3CCOCC3)c2c1` [Compound 6]: the IC50 in assay [4] was found to be 1.6 nM; in assay [1] it was 5.5 nM; in assay [2], 1 nM; in assay [3] it was 2 nM.

In the case of `Cc1nnn(C)c1-c1cnc2c3c4c(ccc3n([C@H](c3ccccc3)C3CCOCC3)c2c1)cnn4C` [Compound 7], the concentration for half-maximal inhibition (IC50) in assay [4] is 4.6 nM; in assay [1] it was 6.5 nM; in assay [2] it was 5.2 nM; in assay [3], 3.5 nM.

For `Cc1nnn(C)c1-c1cnc2c3c4cnn(C)c4c(F)cc3n([C@H](c3ccccc3)C3CCOCC3)c2c1` [Compound 8], the IC50 stood at 3.2 nM in assay [4], 6.5 nM in assay [1], 2.6 nM in assay [2] and 4.2 nM in assay [3].

On to `Cc1nnn(C)c1-c1cnc2c3c4ccn(C)c4ccc3n([C@H](c3ccccc3)C3CCOCC3)c2c1` [Compound 9], for which the values for the 50% inhibitory concentration (IC50) in assay [1], in assay [2] and in assay [3] were 7 nM, 3.5 nM and 6.7 nM, respectively.

For `Cc1nnn(C)c1-c1cnc2c3c4cc[nH]c4ccc3n([C@H](c3ccccc3)C3CCOCC3)c2c1` [Compound 10], the concentration for half-maximal inhibition (IC50) in assay [4] came to 8.1 nM; in assay [1], 8.5 nM; in assay [2], 1.5 nM; in assay [3], 32 nM.

With `Cc1nnn(C)c1-c1cnc2c3c4cn[nH]c4ccc3n([C@H](c3ccccc3)C3CCOCC3)c2c1` [Compound 11], the IC50 in assay [4] was found to be 3.7 nM; in assay [1], 5.5 nM; in assay [2] it was 1 nM; in assay [3], 4.2 nM.

With `Cc1nnn(C)c1-c1cnc2c3c4cccnc4ccc3n([C@H](c3ccccc3)C3CCOCC3)c2c1` [Compound 12], the IC50 in assay [1] is 7.5 nM; in assay [2], 3.2 nM; in assay [3] it was 12 nM.

Take `[2H]C([2H])([2H])c1nnn(C)c1-c1cnc2c3c4cnn(C)c4ccc3n([C@H](c3ccccc3)C3CCOCC3)c2c1` [Compound 13]: the IC50 in assay [4] came to 1.8 nM; in assay [1], 5.5 nM; in assay [2] it was 1 nM; in assay [3], 2 nM.

As for `[2H]C([2H])([2H])c1nnn(C)c1-c1cnc2c3c4cn[nH]c4ccc3n([C@H](c3ccccc3)C3CCOCC3)c2c1` [Compound 14], the IC50 was determined as 3.5 nM in assay [4], 5.5 nM in assay [1], 1 nM in assay [2] and 4 nM in assay [3].

The values above are taken from US10428071B2, “Carboline derivative serving as bromodomain inhibitor” (NINGBO WENDA PHARMA TECHNOLOY LTD., priority 2016, dated 2019).
